Measurements reported in PubChem BioAssay (NCI).
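Cultured in 96-well plates, cells were exposed to test compound for 48 hours across five concentrations. Definition used: TGI = concentration required for complete inhibition of growth.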

Assays:
Experiment in all cases: DTP human tumour cell line panel, 48 h
[1] = test system: HCT-116 colon
[2] = test system: SK-OV-3 ovarian
[3] = test system: NCI-H460 lung
[4] = test system: SW-620 colon
[5] = test system: SF-539 CNS
[6] = test system: HOP-62 NSCLC
[7] = test system: A549 NSCLC
[8] = test system: OVCAR-8 ovarian
[9] = test system: ACHN renal
[10] = test system: KM12 colon
[11] = test system: A498 renal
[12] = test system: SK-MEL-2 melanoma
[13] = test system: TK-10 renal
[14] = test system: LOX IMVI melanoma
[15] = test system: HS 578T breast

SMILES | TGI [1] [µM] | TGI [2] [µM] | TGI [3] [µM] | TGI [4] [µM] | TGI [5] [µM] | TGI [6] [µM] | TGI [7] [µM] | TGI [8] [µM] | TGI [9] [µM] | TGI [10] [µM] | TGI [11] [µM] | TGI [12] [µM] | TGI [13] [µM] | TGI [14] [µM] | TGI [15] [µM]
CC(=O)NC1=NC(=O)/C(=C/c2ccc(/C=C3/C(=O)N=C(NC(C)=O)N3C)cc2)N1C | > 100 | > 100 | > 100 | > 100 | > 100 | > 100 | > 100 | > 100 | > 100 | > 100 | > 100 | > 100 | > 100 | > 100 | –
CCn1c2ccccc2c2c(-c3ccccc3)cc3c(c21)C(=O)N(c1ccccc1)C3=O | > 100 | > 100 | > 100 | > 100 | > 100 | – | > 100 | > 100 | > 100 | > 100 | > 100 | > 100 | > 100 | > 100 | –
COc1ccc(NCC(=O)Nn2c(-c3ccccc3)nc3ccccc3c2=O)cc1 | > 10 | > 100 | > 100 | 82.9 | > 100 | > 100 | > 100 | > 100 | > 100 | > 100 | 88.6 | – | > 100 | 44 | > 100
COc1cc(-c2c3c(cc4c2OCO4)[C@@H](Nc2ccc(-c4ccc(-c5ccc(N[C@@H]6c7cc8c(cc7C(c7cc(OC)c(O)c(OC)c7)[C@H]7C(=O)OC[C@H]67)OCO8)cc5)cc4)cc2)[C@H]2COC(=O)[C@@H]2C3)cc(OC)c1O (some centres undefined) | 3.19 | 10.1 | 10.7 | 10.8 | – | 8.81 | 12.6 | 3.77 | 11.3 | 4.63 | 21.4 | – | 8.59 | > 100 | > 100
CN(CCNC(=O)c1c[nH]c2c1Cc1ccccc1-2)CCNC(=O)c1c[nH]c2c1Cc1ccccc1-2 | > 100 | – | > 100 | > 100 | 49.2 | > 100 | > 100 | > 100 | > 100 | > 100 | – | 52.1 | > 100 | > 100 | > 100
c1ccc2c(c1)cc1n2CCc2c-1[nH]c1ccccc21 | > 10 | > 10 | > 10 | > 10 | > 10 | > 10 | > 10 | > 10 | > 10 | > 10 | – | > 10 | > 10 | > 10 | > 10
NC(=O)CC(N=Cc1nc(-c2ccccc2)oc1O)C(=O)O (centres undefined) | > 100 | > 100 | > 100 | > 100 | > 100 | > 100 | > 100 | > 100 | > 100 | > 100 | > 100 | > 100 | > 100 | > 100 | –
COc1cc(C(C)O)c[n+](CCC2CNc3ccccc32)c1 (centres undefined) | > 100 | – | > 100 | > 100 | > 100 | > 100 | > 100 | > 100 | > 100 | > 100 | > 100 | > 100 | – | > 100 | –
C/C(=C/CC[C@]1(CO)CC[C@]2(C)[C@H](CC[C@@H]3[C@@]4(C)CC[C@H](OC5OC(CO)C(O)C(O)C5OC5OC(CO)C(O)C(O)C5O)C(C)(C)[C@@H]4CC[C@]32C)[C@H]1O)CO (some centres undefined) | > 100 | > 100 | > 100 | > 100 | > 100 | > 100 | > 100 | > 100 | > 100 | > 100 | > 100 | – | > 100 | > 100 | > 100
Cc1nc2cc(Nc3ccccc3C(=O)O)ccc2s1 | > 100 | > 100 | > 100 | > 100 | > 100 | > 100 | > 100 | > 100 | > 100 | > 100 | > 100 | > 100 | > 100 | > 100 | –
C=C(Cl)C(Cl)(CCl)CCC(Br)C(C)(C)Br (centres undefined) | > 10 | > 10 | – | > 10 | > 10 | > 10 | > 10 | > 10 | > 10 | > 10 | > 10 | > 10 | > 10 | – | –
COc1nc2ccc(COc3ccc(C(=O)O)cc3)cc2nc1OC | > 100 | > 100 | > 100 | > 100 | > 100 | > 100 | > 100 | > 100 | > 100 | > 100 | > 100 | > 100 | – | > 100 | –
Clc1ccc(C[P+](c2ccccc2)(c2ccccc2)c2ccccc2)cc1Cl | 10.8 | 20.8 | 12.8 | 12.7 | 14.5 | 21.2 | 19.9 | 12.4 | 31.2 | 11.3 | 27 | 6.4 | 17.6 | 11.7 | –
C[C@]12CC(c3ccccc3O1)C(C(=O)Nc1nc(C34CC5CC(CC(C5)C3)C4)cs1)C(=O)N2 (some centres undefined) | > 100 | > 100 | > 100 | > 100 | – | > 100 | > 100 | > 100 | > 100 | > 100 | > 100 | > 100 | – | > 100 | > 100
O=C1CN(c2cccc(Cl)c2)C(=O)CN1NCNN1CC(=O)N(c2cccc(Cl)c2)CC1=O | > 100 | > 100 | > 100 | > 100 | > 100 | > 100 | > 100 | > 100 | > 100 | > 100 | > 100 | – | > 100 | – | > 100
O=c1[nH]c(=O)n(COCc2ccccc2)cc1Nc1ccc(Br)cc1 | > 100 | – | > 100 | > 100 | – | 88.7 | > 100 | – | > 100 | > 100 | > 100 | – | – | > 100 | > 100

SMILES | TGI [1] [µM] | TGI [2] [µM] | TGI [3] [µM] | TGI [4] [µM] | TGI [5] [µM] | TGI [6] [µM] | TGI [7] [µM] | TGI [8] [µM] | TGI [9] [µM] | TGI [10] [µM] | TGI [11] [µM] | TGI [12] [µM] | TGI [13] [µM] | TGI [14] [µM] | TGI [15] [µM]
CC1OC2OC3C(OCC(O)C3O)OC(=O)[C@]34CCC(C)(C)CC3C3=CCC5[C@@]6(C)C[C@H](O)[C@H](OC7OC(CO)C(O)C(O)C7OC7OCC(OC(=O)CC(C)(O)CC(=O)OC1C(O)C2O)C(O)C7O)[C@@](C)(CO)C6CC[C@@]5(C)[C@]3(C)CC4 (some centres undefined) | 17.4 | 10.4 | 23.9 | 19 | 26 | 6.8 | 10.7 | 15.8 | 18.3 | 10.5 | – | 18.8 | 19.2 | 21.7 | 21.2
CCn1c(CCl)nc2c1C(=O)c1ccccc1C2=O | 4.32 | 2.38 | 3.9 | 2.75 | 4.89 | 4.95 | > 100 | 2.95 | 13.2 | 3.23 | – | – | 8.73 | – | 6.24
Br[C@@H]1[C@H]2c3nc4ccccc4nc3[C@@H]1C[C@H]2Br | > 100 | > 100 | > 100 | > 100 | – | > 100 | > 100 | > 100 | > 100 | > 100 | > 100 | – | > 100 | > 100 | > 100
CCN1CCC(CNC(=O)c2ccc(N)cc2)N1CC (centres undefined) | > 100 | > 100 | > 100 | > 100 | > 100 | > 100 | > 100 | > 100 | > 100 | > 100 | > 100 | > 100 | > 100 | – | > 100
[N-]=[N+]=CC(=O)OCCCCl | > 100 | > 100 | > 100 | > 100 | – | > 100 | – | – | > 100 | > 100 | > 100 | > 100 | > 100 | > 100 | –
CC(C)C1=CC(=O)[C@@](C)(C2[C@H](O)C[C@@]3(C)[C@@H]4CC=C5[C@@H](CC[C@@H](OC6OCC(O)C(O)C6OC6OC(C)C(O)C(O)C6O)C5(C)C)[C@]4(C)C(=O)C[C@]23C)O1 (some centres undefined) | > 100 | > 100 | > 100 | > 100 | – | > 100 | > 100 | > 100 | > 100 | > 100 | > 100 | – | – | – | > 100
O=C1CSC(c2ccc(Cl)cc2Cl)N1c1ccc(Oc2ccc(Cl)cc2)c(Cl)c1 (centres undefined) | 36.2 | 85.6 | 84.4 | > 100 | 86.7 | 59.8 | > 100 | > 100 | > 100 | 50.1 | – | 72.7 | > 100 | 36.6 | 41.9
CC(=O)OCC1OC(n2c(Br)nc3c2c(=O)n(C)c(=O)n3C)C(OC(C)=O)C1OC(C)=O (centres undefined) | > 100 | > 100 | > 100 | > 100 | > 100 | > 100 | > 100 | > 100 | > 100 | > 100 | > 100 | – | > 100 | > 100 | > 100
NC(=S)N1N=C2c3ccccc3CC[C@H]2[C@@H]1c1ccc(Cl)cc1 | 37.3 | > 100 | > 100 | > 100 | > 100 | > 100 | > 100 | > 100 | > 100 | > 100 | > 100 | 61.1 | > 100 | > 100 | –
CCOC(=O)c1c(SC(=O)c2ccc(OC)cc2)n(-c2ccccc2)c(=S)n(-c2ccccc2)c1=O | 47.9 | > 100 | > 100 | 52.5 | 42.2 | > 100 | > 100 | 76.5 | > 100 | > 100 | > 100 | – | > 100 | > 100 | > 100
C[C@@H]1CC(=O)C[C@@H]2CC[C@H]3[C@@H]4CC[C@H](OC(=O)c5cccc6cc7ccccc7nc56)[C@H]4CC[C@@H]3[C@H]21 | 27.1 | 66.7 | 30.8 | 44.2 | 38.6 | 52.3 | 83.2 | 38 | 29.3 | 31.5 | – | 38 | 65.9 | 39.8 | > 100
CNc1ncnc2c1nc(NC1CCCC1)n2C1OC(CO)C(O)C1O (centres undefined) | > 100 | > 100 | > 100 | > 100 | > 100 | > 100 | > 100 | > 100 | > 100 | > 100 | > 100 | > 100 | > 100 | – | –
C/C(=N\Nc1nc2ccccc2s1)c1cc2ccccc2cn1 | 10.6 | 10.7 | 33.7 | > 100 | 25.6 | 41.7 | > 100 | 16.5 | > 100 | 94.4 | 29 | > 100 | > 100 | 10.4 | –
OC1COC2CC(Nc3ccccn3)OC12 (centres undefined) | > 100 | > 100 | > 100 | > 100 | > 100 | > 100 | > 100 | > 100 | > 100 | > 100 | – | > 100 | > 100 | > 100 | > 100
O=C(/C=C(\C(=O)c1cccs1)c1cccs1)c1ccc(C(=O)/C=C(\C(=O)c2cccs2)c2cccs2)cc1 | > 100 | > 100 | > 100 | > 100 | > 100 | > 100 | > 100 | > 100 | > 100 | > 100 | – | > 100 | > 100 | – | > 100
